# Results published in patent publication EP4603105A1, “PHARMACEUTICAL COMPOSITION CONTAINING CYCLIC COMPOUND HAVING SELECTIVE KRAS INHIBITORY EFFECT AGAINST HRAS AND NRAS” (CHUGAI SEIYAKU KABUSHIKI KAISHA, priority 2022, dated 2024).
# Where a SMILES comes first, the peptide text is derived from it. Bridges are numbered along the chain shown (N, C = ends). [ ]: non-standard residue; d: D form. The star is where a group is joined. hPhe(3-Cl-4-CF3) = N[C@@H](CCc1ccc(C(F)(F)F)c(Cl)c1)C(=O)O; NPrPhe(4-CF3) = CCCN[C@@H](Cc1ccc(C(F)(F)F)cc1)C(=O)O; Piperazinyl(4-(3-oxetanyl)) = C1OCC1N1CCN(*)CC1; 3Oxa8azabicyclo(3.2.1)octane = C1CC2COCC1N2*; NMeGly(cPent) = CN[C@H](C(=O)O)C1CCCC1; NEtLeu = CCN[C@@H](CC(C)C)C(=O)O; Piperidide(4-Me) = CC1CCN(*)CC1; NMeD = CN[C@@H](CC(=O)O)C(=O)O; NMeL = CN[C@@H](CC(C)C)C(=O)O; NEtAla = CCN[C@@H](C)C(=O)O; Azetidin(1-yl) = C1CN(*)C1; Morpholide = C1CN(*)CCO1; NMeA = CN[C@@H](C)C(=O)O; Ac5c = NC1(C(=O)O)CCCC1; Aze = O=C(O)[C@@H]1CCN1; Sar = CNCC(=O)O
# Tests used:
# HRAS wild-type protein = HRAS wild-type protein (Homo sapiens, UniProt P01112); assay: Binding to HRAS by surface plasmon resonance (SPR), KD and KD ratio to KRAS; conditions: ratio of KD for HRAS wild-type protein to KD for KRAS
# HRAS wild-type protein, sequence (P01112 whole entry): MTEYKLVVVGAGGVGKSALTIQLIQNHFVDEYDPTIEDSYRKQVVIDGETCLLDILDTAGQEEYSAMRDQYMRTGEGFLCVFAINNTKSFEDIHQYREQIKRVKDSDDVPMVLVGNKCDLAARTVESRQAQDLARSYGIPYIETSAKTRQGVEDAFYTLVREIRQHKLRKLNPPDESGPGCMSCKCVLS
# How it was run: (§1)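 Recombinant RAS proteins bearing a biotinylated Avi tag and loaded with GDP served as the captured ligand, recaptured fresh every cycle. Binding responses were referenced to an uncoated surface and a buffer-only blank cycle. Dissociation constants were obtained by 1:1 model fitting at 30°C.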
# [1] = biological target: GDP-bound NRAS wild-type protein (Homo sapiens, UniProt P01111); assay: Binding to NRAS by surface plasmon resonance (SPR), KD and KD ratio to KRAS; conditions: ratio of KD for GDP-bound NRAS wild-type protein to KD for KRAS
# GDP-bound NRAS wild-type protein, sequence (P01111 whole entry): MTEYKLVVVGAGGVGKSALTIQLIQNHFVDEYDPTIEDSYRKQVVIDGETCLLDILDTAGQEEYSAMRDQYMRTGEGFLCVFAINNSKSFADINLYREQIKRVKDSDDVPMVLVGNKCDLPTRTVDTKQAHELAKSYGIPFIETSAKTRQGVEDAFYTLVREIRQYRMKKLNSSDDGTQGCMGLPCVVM
# How it was run: as §1
# [2] = tested on: human lung cancer strain NCI-H441; type: cell-based
# How it was run: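 Signal came from […] measured per well once the reagent was added. Beforehand, cells were cultured at 37°C and 5% carbon dioxide on a compound series serially diluted in dimethyl sulfoxide.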
IC50 [2] [nM],Compound,HRAS /KRAS (HRAS wild-type protein),NRAS /KRAS [1]
5.3,CCCN1C(=O)[C@@H]2CCN2C(=O)[C@H](C)N(C)C(=O)[C@H]([C@@H](C)CC)NC(=O)[C@H](CC(C)C)N(CC)C(=O)C[C@@H](C(=O)N2CCOCC2)N(C)C(=O)[C@H](C2CCCC2)N(C)C(=O)C2(CCCC2)NC(=O)[C@@H]2CCCN2C(=O)[C@H](CCc2ccc(C(F)(F)F)c(Cl)c2)NC(=O)CN(C)C(=O)[C@@H]1Cc1ccc(C(F)(F)F)cc1 [PP0151] ([NEtLeu]I[NMeA][Aze][NPrPhe(4-CF3)][Sar][hPhe(3-Cl-4-CF3)]P[Ac5c][NMeGly(cPent)][NMeD]-Morpholide; lactam N-11),C (A compound having a KD ratio of 0.1 or more and less than 3 is denoted as C),C (A compound having a KD ratio of 0.1 or more and less than 3 is denoted as C)
11.6,CCCN1C(=O)[C@@H]2CCN2C(=O)[C@H](C)N(C)C(=O)[C@H]([C@@H](C)CC)NC(=O)[C@H](CC(C)C)N(C)C(=O)C[C@@H](C(=O)N2CCOCC2)N(C)C(=O)[C@H](C2CCCC2)N(C)C(=O)C2(CCCC2)NC(=O)[C@H](C)NC(=O)[C@H](CCc2ccc(C(F)(F)F)c(Cl)c2)NC(=O)CN(C)C(=O)[C@@H]1Cc1ccc(C(F)(F)F)cc1 [PP0153] ([NMeL]I[NMeA][Aze][NPrPhe(4-CF3)][Sar][hPhe(3-Cl-4-CF3)]A[Ac5c][NMeGly(cPent)][NMeD]-Morpholide; lactam N-11),C (A compound having a KD ratio of 0.1 or more and less than 3 is denoted as C),C (A compound having a KD ratio of 0.1 or more and less than 3 is denoted as C)
9.9,CCCN1C(=O)[C@@H]2CCN2C(=O)[C@H](C)N(C)C(=O)[C@H]([C@@H](C)CC)NC(=O)[C@H](CC(C)C)NC(=O)C[C@@H](C(=O)N2CCOCC2)N(C)C(=O)[C@H](C2CCCC2)N(C)C(=O)C2(CCCC2)NC(=O)[C@@H]2CCCN2C(=O)[C@H](CCc2ccc(C(F)(F)F)c(Cl)c2)NC(=O)CN(C)C(=O)[C@@H]1Cc1ccc(C(F)(F)F)cc1 [PP0154] (LI[NMeA][Aze][NPrPhe(4-CF3)][Sar][hPhe(3-Cl-4-CF3)]P[Ac5c][NMeGly(cPent)][NMeD]-Morpholide; lactam N-11),B (a compound having 3 or more and less than 10 is denoted as B),C (A compound having a KD ratio of 0.1 or more and less than 3 is denoted as C)
35,CCCN1C(=O)CN(C)C(=O)[C@@H]2CCCN2C(=O)[C@H]([C@@H](C)CC)NC(=O)[C@H](CC(C)C)N(C)C(=O)C[C@@H](C(=O)N2CCOCC2)N(C)C(=O)[C@H](C2CCCC2)N(C)C(=O)C2(CCCC2)NC(=O)[C@@H]2CCCN2C(=O)[C@H](CCc2ccc(C(F)(F)F)c(Cl)c2)NC(=O)CN(C)C(=O)[C@@H]1Cc1ccc(C(F)(F)F)cc1 [PP0165] ([NMeL]IP[Sar][NPrPhe(4-CF3)][Sar][hPhe(3-Cl-4-CF3)]P[Ac5c][NMeGly(cPent)][NMeD]-Morpholide; lactam N-11),B (a compound having 3 or more and less than 10 is denoted as B),B (a compound having 3 or more and less than 10 is denoted as B)
3.8,CCCN1C(=O)CN(C)C(=O)CN(C)C(=O)[C@H]([C@@H](C)CC)NC(=O)[C@H](CC(C)C)N(C)C(=O)C[C@@H](C(=O)N2CCC2)N(C)C(=O)[C@H](C2CCCC2)N(C)C(=O)C2(CCCC2)NC(=O)[C@@H]2CCCN2C(=O)[C@H](CCc2ccc(C(F)(F)F)c(Cl)c2)NC(=O)CN(C)C(=O)[C@@H]1Cc1ccc(C(F)(F)F)cc1 [PP0172] ([NMeL]I[Sar][Sar][NPrPhe(4-CF3)][Sar][hPhe(3-Cl-4-CF3)]P[Ac5c][NMeGly(cPent)][NMeD]-{Azetidin(1-yl)}; lactam N-11),C (A compound having a KD ratio of 0.1 or more and less than 3 is denoted as C),B (a compound having 3 or more and less than 10 is denoted as B)
6.6,CCCN1C(=O)CN(C)C(=O)CN(C)C(=O)[C@H]([C@@H](C)CC)NC(=O)[C@H](CC(C)C)N(C)C(=O)C[C@@H](C(=O)N2CCN(C3COC3)CC2)N(C)C(=O)[C@H](C2CCCC2)N(C)C(=O)C2(CCCC2)NC(=O)[C@@H]2CCCN2C(=O)[C@H](CCc2ccc(C(F)(F)F)c(Cl)c2)NC(=O)CN(C)C(=O)[C@@H]1Cc1ccc(C(F)(F)F)cc1 [PP0175] ([NMeL]I[Sar][Sar][NPrPhe(4-CF3)][Sar][hPhe(3-Cl-4-CF3)]P[Ac5c][NMeGly(cPent)][NMeD]-{Piperazinyl(4-(3-oxetanyl))}; lactam N-11),B (a compound having 3 or more and less than 10 is denoted as B),B (a compound having 3 or more and less than 10 is denoted as B)
17.7,CCCN1C(=O)CN(C)C(=O)CN(C)C(=O)[C@H]([C@@H](C)CC)NC(=O)[C@H](CC(C)C)N(C)C(=O)C[C@@H](C(=O)N2CCC(C)CC2)N(C)C(=O)[C@H](C2CCCC2)N(C)C(=O)C2(CCCC2)NC(=O)[C@@H]2CCCN2C(=O)[C@H](CCc2ccc(C(F)(F)F)c(Cl)c2)NC(=O)CN(C)C(=O)[C@@H]1Cc1ccc(C(F)(F)F)cc1 [PP0176] ([NMeL]I[Sar][Sar][NPrPhe(4-CF3)][Sar][hPhe(3-Cl-4-CF3)]P[Ac5c][NMeGly(cPent)][NMeD]-{Piperidide(4-Me)}; lactam N-11),C (A compound having a KD ratio of 0.1 or more and less than 3 is denoted as C),B (a compound having 3 or more and less than 10 is denoted as B)

# Second part, the molecule before the results:
Compound,IC50 [2] [nM],HRAS /KRAS (HRAS wild-type protein),NRAS /KRAS [1]
CCCN1C(=O)[C@@H]2CCN2C(=O)[C@H](C)N(CC)C(=O)[C@H]([C@@H](C)CC)NC(=O)[C@H](CC(C)C)N(C)C(=O)C[C@@H](C(=O)N2CCOCC2)N(C)C(=O)[C@H](C2CCCC2)N(C)C(=O)C2(CCCC2)NC(=O)[C@@H]2CCCN2C(=O)[C@H](CCc2ccc(C(F)(F)F)c(Cl)c2)NC(=O)CN(C)C(=O)[C@@H]1Cc1ccc(C(F)(F)F)cc1 [PP0152] ([NMeL]I[NEtAla][Aze][NPrPhe(4-CF3)][Sar][hPhe(3-Cl-4-CF3)]P[Ac5c][NMeGly(cPent)][NMeD]-Morpholide; lactam N-11),37.9,B (a compound having 3 or more and less than 10 is denoted as B),C (A compound having a KD ratio of 0.1 or more and less than 3 is denoted as C)
CCCN1C(=O)CN(C)C(=O)CNC(=O)[C@H]([C@@H](C)CC)NC(=O)[C@H](CC(C)C)N(C)C(=O)C[C@@H](C(=O)N2CCOCC2)N(C)C(=O)[C@H](C2CCCC2)N(C)C(=O)C2(CCCC2)NC(=O)[C@@H]2CCCN2C(=O)[C@H](CCc2ccc(C(F)(F)F)c(Cl)c2)NC(=O)CN(C)C(=O)[C@@H]1Cc1ccc(C(F)(F)F)cc1 [PP0155] ([NMeL]IG[Sar][NPrPhe(4-CF3)][Sar][hPhe(3-Cl-4-CF3)]P[Ac5c][NMeGly(cPent)][NMeD]-Morpholide; lactam N-11),2.8,C (A compound having a KD ratio of 0.1 or more and less than 3 is denoted as C),B (a compound having 3 or more and less than 10 is denoted as B)
CCCN1C(=O)[C@@H]2CCN2C(=O)CN(C)C(=O)[C@H]([C@@H](C)CC)NC(=O)[C@H](CC(C)C)N(C)C(=O)C[C@@H](C(=O)N2CCOCC2)N(C)C(=O)[C@H](C2CCCC2)N(C)C(=O)C2(CCCC2)NC(=O)[C@@H]2CCCN2C(=O)[C@H](CCc2ccc(C(F)(F)F)c(Cl)c2)NC(=O)CN(C)C(=O)[C@@H]1Cc1ccc(C(F)(F)F)cc1 [PP0156] ([NMeL]I[Sar][Aze][NPrPhe(4-CF3)][Sar][hPhe(3-Cl-4-CF3)]P[Ac5c][NMeGly(cPent)][NMeD]-Morpholide; lactam N-11),8.1,B (a compound having 3 or more and less than 10 is denoted as B),C (A compound having a KD ratio of 0.1 or more and less than 3 is denoted as C)
CCCN1C(=O)CN(C)C(=O)CN(C)C(=O)[C@H]([C@@H](C)CC)NC(=O)[C@H](CC(C)C)N(C)C(=O)C[C@@H](C(=O)N(C)C)N(C)C(=O)[C@H](C2CCCC2)N(C)C(=O)C2(CCCC2)NC(=O)[C@@H]2CCCN2C(=O)[C@H](CCc2ccc(C(F)(F)F)c(Cl)c2)NC(=O)CN(C)C(=O)[C@@H]1Cc1ccc(C(F)(F)F)cc1 [PP0169] ([NMeL]I[Sar][Sar][NPrPhe(4-CF3)][Sar][hPhe(3-Cl-4-CF3)]P[Ac5c][NMeGly(cPent)][NMeD]-NMe2; lactam N-11),2.3,B (a compound having 3 or more and less than 10 is denoted as B),B (a compound having 3 or more and less than 10 is denoted as B)
CCCN1C(=O)CN(C)C(=O)CN(C)C(=O)[C@H]([C@@H](C)CC)NC(=O)[C@H](CC(C)C)N(C)C(=O)C[C@@H](C(=O)N2C3CCC2COC3)N(C)C(=O)[C@H](C2CCCC2)N(C)C(=O)C2(CCCC2)NC(=O)[C@@H]2CCCN2C(=O)[C@H](CCc2ccc(C(F)(F)F)c(Cl)c2)NC(=O)CN(C)C(=O)[C@@H]1Cc1ccc(C(F)(F)F)cc1 [PP0173] ([NMeL]I[Sar][Sar][NPrPhe(4-CF3)][Sar][hPhe(3-Cl-4-CF3)]P[Ac5c][NMeGly(cPent)][NMeD]-{3Oxa8azabicyclo(3.2.1)octane}; lactam N-11),11.6,C (A compound having a KD ratio of 0.1 or more and less than 3 is denoted as C),B (a compound having 3 or more and less than 10 is denoted as B)
